Test results as given in patent publication US20170007562A1, “Use of Guanidinoacetic Acid and/or Creatine for Increasing the Hatch Rate” (EVONIK DEGUSSA GMBH, priority 2014, published 2017).

Experiments:
[1] = system: parent quails / quail eggs; test: Effect of guanidinoacetic acid in parent feed on total fertility, hatching rate and embryo mortality of quail eggs; assay type: in vivo; settings: for Total fertility: eggs of quails aged 29 weeks; for Hatching rate: hatched quails to incubated eggs
Protocol: 240 parent quails aged 25 weeks were randomly assigned to 5 different rations. Each ration had in each case 8 cages assigned to it, each of which contained a total of 6 birds (4 females, 2 males). Each of the cages was exposed to 17 hours light (natural and artificial), followed by 7 hours dark.
The basic feed employed was a mixture which consisted essentially of maize meal and extracted soybean meal (see table 1). Guanidinoacetic acid (GAA) was added to the basic feed in 4 different amounts (0.06; 0.12; 0.18; 0.24% by weight) giving in total 5 different feed mixtures—with the basic feed without guanidinoacetic acid as reference. The inert constituents of the basic feed were in each case partially substituted by the added guanidinoacetic acid. Guanidinoacetic acid was employed in the form of the commercial product CreAMINO® (96% GAA, Evonik Industries, Germany). During the experiment, the feed was administered ad lib in the form of a meal. Furthermore, the birds were also supplied with sufficient water.
When the quails had reached an age of 29 weeks, the eggs laid were collected on seven successive days and stored for six days in a room at a temperature of 20° C. Thereafter, in each case 196 eggs per ration were incubated in an automatic hatcher. After incubation for 15 days in the hatcher, the eggs were transferred into a hatching room with a temperature of 37° C. and relative atmospheric humidity of 65%. After two days in the hatching room, the hatching rate was determined as the ratio of hatched quails to the number of incubated eggs. Equally, the total fertility was determined as the ratio of fertilized eggs to the total number of incubated eggs. Furthermore, the hatching rate of fertilized eggs was determined as the ratio of hatched quails to the number of fertilized eggs. Furthermore, the embryo mortality, too, was determined. Finally, the guanidinoacetic acid, creatine and creatinine contents in the obtained eggs were determined.

[2] = system: hatched quail chicks; test: Effect of GAA feeding of the parent animals on the properties of the hatched chicks; assay type: in vivo, quails; settings: for Feed conversion / Weight gain / total feed intake, days 1–35: GAA-free ration, days 1 to 35; for Weight on day 1: chicks on GAA-free ration
Text: Finally, the effect of GAA feeding of the parent animals on the properties of the hatched chicks was also studied. To this end, in each case 80 chicks which had been obtained subsequently to feeding the parent animals with the respective ratios were subjected to a two-step feeding programme. Here, the chicks were subjected to a GAA-free ration. Here, all chicks were given the same feed. The feeding stuff of the chicks for the first three weeks and for weeks four to five can be seen from Table 1. The data determined were chick weight on the day of hatching, chick performance (feed intake, weight increase and feed conversion) and creatine content in the muscle tissue of the freshly hatched chicks.

[3] = system: parent broilers (Cobb 500); test: Effect of guanidinoacetic acid on egg production, fertility and hatching rate of hatchery eggs of parent broilers; assay type: in vivo; settings: week 50 to 60
Text: 120 parent broilers (Cobb 500) were randomly assigned to 5 different 10-week feeding measures from week 50 to week 60 of their lives. In each case 6 cages, each of which contained a total of 4 parent hens were subjected to each feeding measure. The basic feed employed was a mixture consisting essentially of maize meal and soybean meal (Table 5). […] In this context, in each case the inert constituents of the basic feed were substituted to some extent by the added guanidinoacetic acid. Guanidinoacetic acid was employed in the form of the commercial product CreAMINO® (96% GAA, Evonik Industries, Germany). The parent animals were given the feed meal as per instructions of the Cobb Breeder Management Guide. In week 60 of their lives, the hens were twice artificially inseminated, the second insemination taking place 4 days after the first one. The semen used for the insemination was obtained from cockerels which had not been fed GAA. The semen was obtained by using abdominal massage. The semen obtained was collected and the sperm cell concentration was determined in order to ensure that all hens were inseminated with the same number and the same volume of sperm cells. After carrying out the insemination, the laid eggs were collected on 10 successive days. The eggs obtained were finally incubated under identical conditions, and the egg production rate, fertility and hatching rate of the fertilized eggs were subsequently determined.

[4] = system: eggs; settings: prior art, Halle et al, Landbauforschung Völkenrode (2006); cited from earlier work
[5] = 0.06% by weight GAA in parent feed
[6] = 0.06% by weight GAA in parent feed, quails
[7] = 0.12% by weight GAA in parent feed
[8] = 0.12% by weight GAA in parent feed, quails
[9] = 0.18% by weight GAA in parent feed
[10] = 0.18% by weight GAA in parent feed, quails
[11] = 0.24% by weight GAA in parent feed
[12] = 0.24% by weight GAA in parent feed, quails
[13] = square regression analysis, quails
[14] = chicks of parents fed 0.06% by weight GAA
[15] = chicks of parents fed 0.12% by weight GAA
[16] = chicks of parents fed 0.18% by weight GAA
[17] = chicks of parents fed 0.24% by weight GAA
[18] = 0.04% by weight guanidinoacetic acid in feed
[19] = 0.08% by weight guanidinoacetic acid in feed
[20] = 0.12% by weight guanidinoacetic acid in feed
[21] = 0.16% by weight guanidinoacetic acid in feed

N=C(N)NCC(=O)O [GAA, Guanidinoacetic acid]
Total fertility [1, 5]: 95.27 ± 1.81%
Hatching rate [1, 5]: 76.52 ± 3.78%
Hatching rate of the fertilized eggs [1, 6]: 80.19 ± 3.07%
Mortality (embryo mortality) [1, 6]: 18.75 ± 2.76%
Total fertility [1, 7]: 97.05 ± 1.51%
Hatching rate [1, 7]: 90.69 ± 2.10%
Hatching rate of the fertilized eggs [1, 8]: 93.49 ± 2.04%
Mortality (embryo mortality) [1, 8]: 6.40 ± 1.96%
Total fertility [1, 9]: 98.32 ± 0.82%
Hatching rate [1, 9]: 87.39 ± 3.20%
Hatching rate of the fertilized eggs [1, 10]: 88.94 ± 3.33%
Mortality (embryo mortality) [1, 10]: 10.92 ± 3.32%
Total fertility [1, 11]: 94.02 ± 1.29%
Hatching rate [1, 11]: 81.38 ± 2.50%
Hatching rate of the fertilized eggs [1, 12]: 86.51 ± 2.03%
Mortality (embryo mortality) [1, 12]: 12.64 ± 1.89%
dosage from which the observed effects were significantly increased ([1]; quails): above 0.1 % by weight
optimum range of feeding the parent animals ([1]; quails): 0.12-0.18 % by weight
optimum value for GAA supplementation in terms of the hatching rate [1, 13]: 0.15 % by weight
optimum value for GAA supplementation in terms of the hatching rate of fertilized eggs [1, 13]: 0.16 % by weight
optimum value for GAA supplementation in terms of the mortality rate [1, 13]: 0.16 % by weight
optimum value for GAA supplementation in terms of the total reproduction [1, 13]: 0.14 % by weight
Feed conversion [2, 14]: 3.248 ± 0.063 g/g
Weight gain [2, 14]: 230.74 ± 7.6 g
total feed intake, days 1–35 [2, 14]: 748 ± 11.1 g
Weight on day 1 [2, 14]: 9.60 ± 0.16 g
Feed conversion [2, 15]: 3.414 ± 0.048 g/g
Weight gain [2, 15]: 224.98 ± 2.9 g
total feed intake, days 1–35 [2, 15]: 768 ± 11.1 g
Weight on day 1 [2, 15]: 9.74 ± 0.31 g
Feed conversion [2, 16]: 3.305 ± 0.033 g/g
Weight gain [2, 16]: 217.22 ± 0.6 g
total feed intake, days 1–35 [2, 16]: 718 ± 8.95 g
Weight on day 1 [2, 16]: 9.65 ± 0.16 g
Feed conversion [2, 17]: 3.455 ± 0.090 g/g
Weight gain [2, 17]: 222.86 ± 1.9 g
total feed intake, days 1–35 [2, 17]: 770 ± 26.1 g
Weight on day 1 [2, 17]: 9.41 ± 0.17 g
Creatine in the muscle ([2]; freshly hatched chicks of parents fed 0.06% by weight GAA): 0.541 ± 0.026 mg/g
Creatine in the muscle ([2]; freshly hatched chicks of parents fed 0.12% by weight GAA): 0.489 ± 0.058 mg/g
Creatine in the muscle ([2]; freshly hatched chicks of parents fed 0.18% by weight GAA): 0.481 ± 0.040 mg/g
Creatine in the muscle ([2]; freshly hatched chicks of parents fed 0.24% by weight GAA): 0.433 ± 0.033 mg/g
Egg production [3, 18]: 50.42%
Fertility [3, 18]: 85.15%
Hatching rate (of fertilized eggs) [3, 18]: 65.59%
Egg production [3, 19]: 53.18%
Fertility [3, 19]: 96.51%
Hatching rate (of fertilized eggs) [3, 19]: 83.76%
Egg production [3, 20]: 53.44%
Fertility [3, 20]: 96.43%
Hatching rate (of fertilized eggs) [3, 20]: 83.95%
Egg production [3, 21]: 50.50%
Fertility [3, 21]: 81.76%
Hatching rate (of fertilized eggs) [3, 21]: 65.04%

CN(CC(=O)O)C(=N)N [creatine]
effect on the hatching rate [4]: no effect
